Results reported in ChEMBL document CHEMBL1909294, “Translating clinical findings into knowledge in drug safety evaluation--drug induced liver injury prediction system (DILIps)” (PLoS Comput Biol, 2011).

Columns and labels:
Hepatotoxicity [1] = system: Hepatotoxicity;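 as to HepSE Combined Scores: combined hepatic side effect score as listed in the training data of the Drug Induced Liver Injury Prediction System (DILIps)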;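 as to HepSE cholecystitis: Cholecystitis-related hepatic side effect score drawn from the DILIps (drug-induced liver injury prediction) training data set; call rule not given here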;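 as to HepSE elevated liver function tests: hepatic side effect score for raised liver function tests, as recorded in the DILIps training set used for predicting drug-induced liver injury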;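 as to HepSE hepatomegaly: hepatic side effect score for hepatomegaly, taken from the training set of the DILIps drug-induced liver injury prediction system; call rule not given here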;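 as to HepSE liver fatty: hepatic side effect score for fatty liver, taken from the DILIps training set for predicting drug-induced liver injury; call rule not given here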;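 as to HepSE liver function tests abnormal: hepatic side effect score taken from the DILIps (drug-induced liver injury prediction system) training data, here covering abnormal liver function test findings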
Hepatotoxicity [2] = system: Hepatotoxicity; remark: listed apart in the source;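 as to HepSE Combined Scores: combined hepatic side effect score as listed in the training data of the Drug Induced Liver Injury Prediction System (DILIps)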;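 as to HepSE cholecystitis: Cholecystitis-related hepatic side effect score drawn from the DILIps (drug-induced liver injury prediction) training data set; call rule not given here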;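 as to HepSE elevated liver function tests: hepatic side effect score for raised liver function tests, as recorded in the DILIps training set used for predicting drug-induced liver injury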;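 as to HepSE hepatomegaly: hepatic side effect score for hepatomegaly, taken from the training set of the DILIps drug-induced liver injury prediction system; call rule not given here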;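 as to HepSE liver fatty: hepatic side effect score for fatty liver, taken from the DILIps training set for predicting drug-induced liver injury; call rule not given here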;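 as to HepSE liver function tests abnormal: hepatic side effect score taken from the DILIps (drug-induced liver injury prediction system) training data, here covering abnormal liver function test findings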
Hepatotoxicity [3] = system: Hepatotoxicity; remark: listed apart in the source;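 as to HepSE cholecystitis: Cholecystitis-related hepatic side effect score drawn from the DILIps (drug-induced liver injury prediction) training data set; call rule not given here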;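 as to HepSE elevated liver function tests: hepatic side effect score for raised liver function tests, as recorded in the DILIps training set used for predicting drug-induced liver injury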;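 as to HepSE hepatomegaly: hepatic side effect score for hepatomegaly, taken from the training set of the DILIps drug-induced liver injury prediction system; call rule not given here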;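 as to HepSE liver fatty: hepatic side effect score for fatty liver, taken from the DILIps training set for predicting drug-induced liver injury; call rule not given here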;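 as to HepSE liver function tests abnormal: hepatic side effect score taken from the DILIps (drug-induced liver injury prediction system) training data, here covering abnormal liver function test findings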
Hepatotoxicity [4] = system: Hepatotoxicity; remark: listed apart in the source;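 as to HepSE cholecystitis: Cholecystitis-related hepatic side effect score drawn from the DILIps (drug-induced liver injury prediction) training data set; call rule not given here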;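 as to HepSE elevated liver function tests: hepatic side effect score for raised liver function tests, as recorded in the DILIps training set used for predicting drug-induced liver injury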;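 as to HepSE hepatomegaly: hepatic side effect score for hepatomegaly, taken from the training set of the DILIps drug-induced liver injury prediction system; call rule not given here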;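 as to HepSE liver fatty: hepatic side effect score for fatty liver, taken from the DILIps training set for predicting drug-induced liver injury; call rule not given here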;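 as to HepSE liver function tests abnormal: hepatic side effect score taken from the DILIps (drug-induced liver injury prediction system) training data, here covering abnormal liver function test findings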
Hepatotoxicity [5] = system: Hepatotoxicity; remark: listed apart in the source
Hepatotoxicity [6] = system: Hepatotoxicity; remark: listed apart in the source
Hepatotoxicity [7] = system: Hepatotoxicity; remark: listed apart in the source
Hepatotoxicity [8] = system: Hepatotoxicity; remark: listed apart in the source
Hepatotoxicity [9] = system: Hepatotoxicity; remark: listed apart in the source
Hepatotoxicity [10] = system: Hepatotoxicity; remark: listed apart in the source
Hepatotoxicity [11] = system: Hepatotoxicity; remark: listed apart in the source
Hepatotoxicity [12] = system: Hepatotoxicity; remark: listed apart in the source
Hepatotoxicity [13] = system: Hepatotoxicity; remark: listed apart in the source
Hepatotoxicity [14] = system: Hepatotoxicity; remark: listed apart in the source

Row | Compound | HepSE_cholecystitis (Hepatotoxicity [1]) | HepSE_liver function tests abnormal (Hepatotoxicity [2]) | HepSE_liver fatty (Hepatotoxicity [3]) | HepSE_elevated liver function tests (Hepatotoxicity [4]) | HepSE_hepatomegaly (Hepatotoxicity [5]) | HepSE_Combined Scores (Hepatotoxicity [6]) | HepSE_cirrhosis (Hepatotoxicity [7]) | HepSE_bilirubinemia (Hepatotoxicity [8]) | HepSE_hepatic failure (Hepatotoxicity [9]) | HepSE_jaundice (Hepatotoxicity [10]) | HepSE_liver disease (Hepatotoxicity [11]) | HepSE_hepatitis (Hepatotoxicity [12]) | HepSE_hepatic necrosis (Hepatotoxicity [13]) | HepSE_cholelithiasis (Hepatotoxicity [14]) | also measured
1 | CNC(=O)c1c(I)c(NC(C)=O)c(I)c(C(=O)[O-])c1I.[Na+] [IOTHALAMATE SODIUM] | 0 | 0 | 0 | 0 | 0 | 0 | 0 | 0 | 0 | 0 | 0 | 0 | 0 | 0 | 
2 | CNC(=O)c1c(I)c(NC(C)=O)c(I)c(C(=O)O)c1I [IOTHALAMIC ACID] | 0 | 0 | 0 | 0 | 0 | 0 | 0 | 0 | 0 | 0 | 0 | 0 | 0 | 0 | 
3 | O=C(NCC(O)CO)c1c(I)c(C(=O)NCC(O)CO)c(I)c(N(CCO)C(=O)CO)c1I (configuration not stated) [IOVERSOL] | 0 | 0 | 0 | 0 | 0 | 0 | 0 | 0 | 0 | 0 | 0 | 0 | 0 | 0 | 
4 | CCCCC1=NC2(CCCC2)C(=O)N1Cc1ccc(-c2ccccc2-c2nnn[nH]2)cc1 [IRBESARTAN] | 0 | 0 | 0 | 1 | 0 | 3 | 0 | 0 | 0 | 1 | 0 | 1 | 0 | 0 | 
5 | CCc1c2c(nc3ccc(OC(=O)N4CCC(N5CCCCC5)CC4)cc13)-c1cc3c(c(=O)n1C2)COC(=O)[C@]3(O)CC [IRINOTECAN] | 0 | 0 | 0 | 0 | 1 | 2 | 0 | 0 | 0 | 1 | 0 | 0 | 0 | 0 | 
6 | Cc1cc(C(=O)NNCc2ccccc2)no1 [ISOCARBOXAZID] | 0 | 0 | 0 | 0 | 0 | 0 | 0 | 0 | 0 | 0 | 0 | 0 | 0 | 0 | 
7 | FC(F)OC(Cl)C(F)(F)F (configuration not stated) [ISOFLURANE] | 0 | 0 | 0 | 0 | 0 | 4 | 0 | 0 | 1 | 1 | 0 | 1 | 1 | 0 | 
8 | NNC(=O)c1ccncc1 [ISONIAZID] | 0 | 0 | 0 | 0 | 0 | 2 | 0 | 1 | 0 | 1 | 0 | 0 | 0 | 0 | 
9 | CC(C)NCC(O)c1ccc(O)c(O)c1 (configuration not stated) [ISOPROTERENOL] |  |  |  |  |  |  |  |  |  |  |  |  |  |  | HepSE_cholecystitis (Hepatotoxicity [1]; Liver): 0; HepSE_liver function tests abnormal (Hepatotoxicity [2]; Liver): 0; HepSE_liver fatty (Hepatotoxicity [3]; Liver): 0; HepSE_elevated liver function tests (Hepatotoxicity [4]; Liver): 0; HepSE_hepatomegaly (Hepatotoxicity [5]; Liver): 0; HepSE_Combined Scores (Hepatotoxicity [6]; Liver): 0; HepSE_cirrhosis (Hepatotoxicity [7]; Liver): 0; HepSE_bilirubinemia (Hepatotoxicity [8]; Liver): 0; HepSE_hepatic failure (Hepatotoxicity [9]; Liver): 0; HepSE_jaundice (Hepatotoxicity [10]; Liver): 0; HepSE_liver disease (Hepatotoxicity [11]; Liver): 0; HepSE_hepatitis (Hepatotoxicity [12]; Liver): 0; HepSE_hepatic necrosis (Hepatotoxicity [13]; Liver): 0; HepSE_cholelithiasis (Hepatotoxicity [14]; Liver): 0
10 | O=[N+]([O-])O[C@H]1CO[C@H]2[C@@H]1OC[C@H]2O[N+](=O)[O-] [ISOSORBIDE DINITRATE] | 0 | 0 | 0 | 0 | 0 | 0 | 0 | 0 | 0 | 0 | 0 | 0 | 0 | 0 | 
11 | O=[N+]([O-])O[C@@H]1CO[C@H]2[C@@H]1OC[C@@H]2O [ISOSORBIDE MONONITRATE] | 1 | 0 | 0 | 0 | 1 | 2 | 0 | 0 | 0 | 0 | 0 | 0 | 0 | 0 | 
12 | CC(COc1ccccc1)NC(C)C(O)c1ccc(O)cc1 (configuration not stated) [ISOXSUPRINE] | 0 | 0 | 0 | 0 | 0 | 0 | 0 | 0 | 0 | 0 | 0 | 0 | 0 | 0 | 
13 | COC(=O)C1=C(C)NC(C)=C(C(=O)OC(C)C)C1c1cccc2nonc12 (configuration not stated) [ISRADIPINE] | 0 | 0 | 0 | 1 | 0 | 1 | 0 | 0 | 0 | 0 | 0 | 0 | 0 | 0 | 
